Experimental data taken from patent publication US12435128B2, “Method for predicting therapeutic effect of LSD1 inhibitor based on expression of INSM1” (TAIHO PHARMACEUTICAL CO., LTD., priority 2017, dated 2025).
Counter-ions that a name gives are not always drawn. Like-named read-outs stand apart in the source and are kept apart here. One block for each compound: values may come before it.

Tests used:
[1] = tested on: HEL cells (human acute myelocytic leukemia cell lines); assay: Cell-growth inhibition test: HEL cells; type: cell-based; details: read-out: IC50 (nM), Cell-Growth Inhibition Test: HEL Cells
DMS79 cells = assay: Cell-growth inhibitory effects of LSD1 inhibitor on non-sensitive strain DMS79; type: cell-based, human; details: 10 days
Protocol: (§1) As a medium, 10% FBS-containing RPMI1640 was used. Cell lines were seeded in a 96-well flat-bottom microplate in an amount of 120 μL, and a well containing 160 μL of medium alone was also prepared for background measurement. […] After culture, the microplate was allowed to stand at room temperature for 30 minutes. To 160 μL of the cell culture solution or the medium containing no cells, 140 μL of CellTiter-Glo 2.0 Assay (Promega) was added. After the microplate was allowed to stand at room temperature for 10 minutes, the luminescence intensity of viable cells in each well was measured using a microplate reader (PerkinElmer, EnSpire). The IC35 of each drug was obtained in the same manner as above.

[2] = tested on: NCI-H1417 cells (human small-cell lung cancer cell lines); assay: Cell-growth inhibition test: NCI-H1417 cells; type: cell-based; details: read-out: IC50 (nM), Cell-Growth Inhibition Test: NCI-H1417 Cells
Protocol: (§2) Under the following conditions, an in vitro cell-growth inhibition test was performed with respect to HEL cells (human acute myelocytic leukemia cell lines), NCI-H1417 cells (human small-cell lung cancer cell lines), and NCI-H146 cells (human small-cell lung cancer cell lines).
(§3) The cells with the Example compound or with dimethylsulfoxide alone were cultured at 37° C. in a 5% carbon-dioxide-containing incubator for 5 days (HEL cells) or 10 days (NCI-H1417 cells and NCI-H146 cells). After culture, the plate was allowed to stand at room temperature for 30 minutes, and 100 μL of the supernatant was removed from each well to leave 100 μL of the cell culture solution. To each well containing the remaining 100 μL of the cell culture solution, the same amount of CellTiter-Glo 2.0 Assay (Promega, Cat #: G9242) was added. The microplate was shaken with a plate mixer for 1 minute and then allowed to stand in a dark place for 10 minutes. Thereafter, the luminescence intensity of viable cells in each well was measured using a microplate reader (PerkinElmer, EnSpire). […] Cell growth rate(%)=T/C×100 • T: The luminescence intensity in a well to which the test compound was added (count per second) • C: The luminescence intensity in a well to which dimethylsulfoxide alone was added (count per second)

[3] = tested on: NCI-H146 cells (human small-cell lung cancer cell lines); assay: Cell-growth inhibition test: NCI-H146 cells; type: cell-based; details: NCI-H146 cells; read-out: IC50 (nM), Cell-Growth Inhibition Test: NCI-H146 Cells
Protocol: as §2, §3

NCI-H1417 cells = assay: Cell-growth inhibitory effects of LSD1 inhibitor on sensitive strain NCI-H1417; type: cell-based, human; details: 10 days
Protocol: as §1

[4] = tested on: NCI-H146 cells (human small-cell lung cancer cell lines); assay: Antitumor effect test using NCI-H146 cells subcutaneously implanted into mice (T/C %); type: in vivo; details: NCI-H146 in BALB/cAJcl-nu/nu mice
Protocol: To 5 mice in each group, a vehicle (0.5% hydroxymethylpropylcellulose containing 0.1 N HCL) or each Example compound was orally administered. […] The major axis and the minor axis of each tumor were measured twice a week with an electric caliper to calculate the tumor volume (TV). According to the tumor volumes thus obtained, a relative tumor volume (RTV) and a relative tumor volume change (T/C (%)) were calculated. The TV, RTV, and T/C (%) were calculated using the following equations. Tumor volume TV(mm^3)=(major axis, mm)×(minor axis, mm)×(minor axis, mm)/2 Relative tumor volume RTV=TV/(TV on the grouping day) T/C(%)=(average RTV of administration group)/(average RTV of vehicle administration group)×100.
The final measurement day was the day following the final administration day.

SMILES: CCC(O)(CC)Cn1nnc2cc(-c3ccc(C(=O)N4[C@@H]5CC[C@H]4[C@@H](N)C5)cc3-c3ccc(C#N)c(F)c3)c(F)c(F)c21 (single isomer, unassigned) [Example 214]
IC50 [1]: 0.44 nM
growth inhibitory effects (DMS79 cells): did not show growth inhibitory effects
IC50 [2]: 0.47 nM
IC50 [3]: 2.58 nM
growth inhibitory effects (NCI-H1417 cells): showed growth inhibitory effects

SMILES: CC(C)(O)Cn1nnc2cc(-c3ccc(CN4[C@@H]5CC[C@H]4[C@@H](N)C5)cc3-c3ccc(C#N)c(F)c3)c(F)c(F)c21.Cl.Cl (single isomer, unassigned) [Example 285]
growth inhibitory effects (DMS79 cells): did not show growth inhibitory effects
growth inhibitory effects (NCI-H1417 cells): showed growth inhibitory effects

SMILES: CC(C)(O)Cn1ccc2cc(-c3ccc(CN4[C@@H]5CC[C@H]4[C@@H](N)C5)cc3-c3ccc(C#N)c(F)c3)c(F)cc21 (single isomer, unassigned) [Example 289, dihydrochloride]
IC50 [1]: 0.036 nM
IC50 [2]: 0.094 nM
IC50 [3]: 0.97 nM

IC50 ([1]; HEL cells): 3.55 nM
IC50 ([2]; NCI-H1417 cells): 4.73 nM
IC50 [3]: 8.13 nM
SMILES: Cn1ccc2cc(-c3ccc(C(=O)N4C5CCC4CC(N)C5)cc3-c3ccc(C#N)c(F)c3)ccc21 (stereo not drawn) [Example 18, 4-[5-[(3-exo)-3-amino-8-azabicyclo[3.2.1]octane-8-carbonyl]-2-(1-methylindol-5-yl)phenyl]-2-fluoro-benzonitrile]

SMILES: CC(C)(O)Cc1ccc(-c2ccc(C(=O)N3[C@@H]4CC[C@H]3C[C@@H](N)C4)cc2-c2ccc(C#N)c(F)c2)c(F)c1 [Example 41, 4-[5-[(3-endo)-3-amino-8-azabicyclo[3.2.1]octane-8-carbonyl]-2-[2-fluoro-4-(2-hydroxy-2-methyl-propyl)phenyl]phenyl]-2-fluoro-benzonitrile]
growth inhibitory effects (DMS79 cells): did not show growth inhibitory effects
growth inhibitory effects (NCI-H1417 cells): showed growth inhibitory effects
T/C (%) ([4]; 25 mg/kg orally once a day, 21 consecutive days): 19%

IC50 ([1]; HEL cells): 1.99 nM
IC50 ([2]; NCI-H1417 cells): 3.57 nM
IC50 [3]: 1.39 nM
SMILES: Cn1ccc2cc(-c3ccc(C(=O)N4C5CCC4CC(N)C5)cc3-c3ccc(C#N)c(F)c3)c(F)cc21 (stereo not drawn) [Example 123, 4-[5-[(3-endo)-3-amino-8-azabicyclo[3.2.1]octane-8-carbonyl]-2-(6-fluoro-1-methyl-indol-5-yl)phenyl]-2-fluoro-benzonitrile]

SMILES: CC(C)(O)Cn1nnc2cc(-c3ccc(C(=O)N4[C@@H]5CC[C@H]4C[C@@H](N)C5)cc3-c3ccc(C#N)c(F)c3)c(F)c(F)c21 [Example 161, 5′-((3-endo)-3-amino-8-azabicyclo[3.2.1]octane-8-carbonyl)-2′-(6,7-difluoro-1-(2-hydroxy-2-methylpropyl)-1H-benzo[d][1,2,3]triazol-5-yl)-3-fluoro-[1,1′-biphenyl]-4-carbonitrile]
IC50 [1]: 5.68 nM
T/C (%) ([4]; 40 mg/kg orally once a day, 28 consecutive days): 14%

SMILES: CC(C)(O)Cn1ccc2cc(-c3ccc(C(=O)N4C5CCC4CC(N)C5)cc3-c3ccc(C#N)c(F)c3)c(F)c(F)c21 (stereo not drawn) [Example 183, 5′-((3-endo)-3-amino-8-azabicyclo[3.2.1]octane-8-carbonyl)-2′-(6,7-difluoro-1-(2-hydroxy-2-methylpropyl)-1H-indol-5-yl)-3-fluoro-[1,1′-biphenyl]-4-carbonitrile]
IC50 [1]: 0.54 nM
IC50 [2]: 1.01 nM
IC50 [3]: 0.25 nM

SMILES: CC(C)(O)CCn1ncc2cc(-c3ccc(C(=O)N4C5CCC4CC(N)C5)cc3-c3ccc(C#N)c(F)c3)c(F)cc21 (stereo not drawn) [Example 194, 5′-((3-endo)-3-amino-8-azabicyclo[3.2.1]octane-8-carbonyl)-3-fluoro-2′-(6-fluoro-1-(3-hydroxy-3-methylbutyl)-1H-indazol-5-yl)-[1,1′-biphenyl]-4-carbonitrile]
IC50 [1]: 15.5 nM
IC50 [2]: 5.63 nM
IC50 [3]: 11.3 nM

SMILES: CCC(O)(CC)Cn1ncc2cc(-c3ccc(C(=O)N4C5CCC4CC(N)C5)cc3-c3ccc(C#N)c(F)c3)c(F)cc21 (stereo not drawn) [Example 205, 5′-((3-endo)-3-amino-8-azabicyclo[3.2.1]octane-8-carbonyl)-2′-(1-(2-ethyl-2-hydroxybutyl)-6-fluoro-1H-indazol-5-yl)-3-fluoro-[1,1′-biphenyl]-4-carbonitrile]
IC50 [1]: 4.95 nM
IC50 [2]: 6.25 nM
IC50 [3]: 15.1 nM

SMILES: CCC(O)(CC)Cn1nnc2cc(-c3ccc(C(=O)N4C5CCC4CC(N)C5)cc3-c3ccc(C#N)c(F)c3)c(F)c(Cl)c21 (stereo not drawn) [Example 220, 5′-((3-endo)-3-amino-8-azabicyclo[3.2.1]octane-8-carbonyl)-2′-(7-chloro-1-(2-ethyl-2-hydroxybutyl)-6-fluoro-1H-benzo[d][1,2,3]triazol-5-yl)-3-fluoro-[1,1′-biphenyl]-4-carbonitrile]
IC50 [1]: 1.09 nM
IC50 [2]: 1.03 nM
IC50 [3]: 1.81 nM

SMILES: Cc1c(F)c(-c2ccc(C(=O)N3C4CCC3CC(N)C4)cc2-c2ccc(C#N)c(F)c2)cc2nnn(CC(C)(C)O)c12 (stereo not drawn) [Example 240, 5′-((3-endo)-3-amino-8-azabicyclo[3.2.1]octane-8-carbonyl)-3-fluoro-2′-(6-fluoro-1-(2-hydroxy-2-methylpropyl)-7-methyl-1H-benzo[d][1,2,3]triazol-5-yl)-[1,1′-biphenyl]-4-carbonitrile]
IC50 [1]: 4.2 nM
IC50 [2]: 2.55 nM
IC50 [3]: 4.81 nM

SMILES: CC(C)(O)Cn1nnc2cc(-c3ccc(C(=O)N4C5CCC4CC(N)C5)cc3-c3ccc(C#N)c(F)c3)c(F)c(C(F)F)c21 (stereo not drawn) [Example 250, 5′-((3-endo)-3-amino-8-azabicyclo[3.2.1]octane-8-carbonyl)-2′-(7-(difluoromethyl)-6-fluoro-1-(2-hydroxy-2-methylpropyl)-1H-benzo[d][1,2,3]triazol-5-yl)-3-fluoro-[1,1′-biphenyl]-4-carbonitrile]
IC50 [1]: 2.36 nM
IC50 [2]: 1.2 nM
IC50 [3]: 9.3 nM

SMILES: N#Cc1ccc(-c2cc(C(=O)N3C4CCC3CC(N)C4)ccc2-c2cc3nnn(CC4(O)CCC4)c3c(C(F)F)c2F)cc1F (stereo not drawn) [Example 262, 5′-((3-endo)-3-amino-8-azabicyclo[3.2.1]octane-8-carbonyl)-2′-(7-(difluoromethyl)-6-fluoro-1-((1-hydroxycyclobutyl)methyl)-1H-benzo[d][1,2,3]triazol-5-yl)-3-fluoro-[1,1′-biphenyl]-4-carbonitrile]
IC50 [1]: 0.93 nM
IC50 [2]: 0.7 nM
IC50 [3]: 3.1 nM

SMILES: N#Cc1ccc(-c2cc(C(=O)N3C4CCC3CC(N)C4)ccc2-c2cc3nnn(CC4(O)CCC4)c3c(C#N)c2F)cc1F (stereo not drawn) [Example 266, 5-(5-((3-endo)-3-amino-8-azabicyclo[3.2.1]octane-8-carbonyl)-4′-cyano-3′-fluoro-[1,1′-biphenyl]-2-yl)-6-fluoro-1-((1-hydroxycyclobutyl)methyl)-1H-benzo[d][1,2,3]triazole-7-carbonitrile]
IC50 [1]: 4.63 nM
IC50 [2]: 1.85 nM
IC50 [3]: 17.5 nM
